Patent US20210213137A1, “COMPOSITIONS TO TREAT ULTRAVIOLET (UV)-INDUCED SKIN INJURY” (Mayo Foundation for Medical Education and Research, priority 2016, published 2021)

Legend:
mouse ears = assay: UVB-induced ear edema (ear thickness) in mice; type: in vivo
Text: FIG. 1A. Timeline of the acute and chronic effects of UV-induced skin injury. FIG. 1B. Quantitative PCR was used to measure induction of VEGF transcript in mouse skin upon exposure to various doses of UVB (n=3 mice/group). FIG. 1C. Representative photographs of mouse ears two days after UVB exposure. UVB induces angiogenesis in the ear of mice. FIG. 1D. Systemic administration of VEGF antibody 2C3 reduces edema as shown by 50% decrease in ear thickness (p=0.0101, n=4).
(§1) FIG. 2A. […] FIG. 2B. […] 1×1 cm are on the right flank of the mice were exposed to UVB 3 times/week for 3 weeks (n=5). Either vehicle or GNP-VEGF antibody was applied to the area 2 hours after exposure. FIG. 2C. […] All treatments were applied 2 hours post-UVB exposure. Data representative of 2 experiments, n=5. Ear thickness was measured 2 days after UVB exposure. Avastin® and 2C3 are VEGF antibodies. FIG. 2D. Topical administration of GNP-VEGF antibody or small molecular inhibitor (SMI) of VEGF signaling, sorafenib, reduces edema. All treatments were applied 2 hours post UVB exposure. Data representative of 2 experiments, n=5. Ear thickness was measured 2 days after UVB exposure.

mice skin = assay: UVB-induced skin injury in mice (chronic and acute UVB exposure); type: in vivo; conditions: topical administration; summary statement
Protocol: as §1
Vascular endothelial growth factor (VEGF) was induced by UVB light and works concomitantly with ROS to induce the pathway, and was identified as an upstream regulator of the inflammation pathway.

primary melanoma tumor = assay: Mouse model of melanoma with chronic UVB exposure; type: in vivo, mice; conditions: summary statement
Protocol: FIG. 3A. […] For Tumor+UV group * p<0.05, ** p<0.01 compared to tumor only, § p<0.05 compared to Tumor+UV+Tx group. No significant difference between tumor only and tumor+UV+Tx group at all time points. Data based on 3 experiments (n=5). FIG. 3B. […] FIG. 3C. Quantification of vessel density via CD31 staining, a marker of vessels.
FIG. 4A. Schematic diagram of experimental setup corresponding to FIG. 3A. All mice were injected with tumor on their right flank on Day 0. Luciferase imaging was done on day 5. Based on luciferase imaging data, mice were assigned to different groups (no UV—tumor only, tumor+UV, and tumor+UV+Tx). Starting on day 6, 1×1 cm area on the tumor was exposed to UVB. Vehicle or treatment was applied 2 hours post UVB exposure. A subset of the mice (n=4) was sacrificed on day 6, 10, 14 and 19 for analysis. FIG. 4B. Survival curve of mice in a separate analogous tumor study to the one represented in FIG. 3A.

Row | Compound | acute effects of UV-induced skin damage (mouse ears; topical administration, mice) | edema (ear thickness) (mouse ears; topical, 2 hours post UVB exposure, ear thickness 2 days after UVB, n=5, FIG. 2D) | skin injury following UVB exposure (mice skin) | melanoma tumor growth (primary melanoma tumor)
1 | CNC(=O)c1cc(Oc2ccc(NC(=O)Nc3ccc(Cl)c(C(F)(F)F)c3)cc2)ccn1 [sorafenib] | inhibited the acute effects of UV-induced skin damage | reduces edema | prevented and/or reduced skin injury | 
2 | bevacizumab [Avastin®] |  |  | prevented and/or reduced skin injury | prevented and/or reduced melanoma tumor growth
